The target of series [1] is Recombinant AMPK α1/β1/γ1 complex (Homo sapiens (Human), UniProt Q13131+Q9Y478). In words: In vitro pAMPK1 kinase activation assay (ADP-Glo, SAMS peptide). The class given is biochemical. The following applies: AMPK α1/β1/γ1 pre-activated with CAMKK2; 12-point curve; 15 min compound incubation. In a few lines:
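CAMKK2-pre-activated α1/β1/γ1 complex incubated 15 minutes with compound, then SAMS peptide phosphorylation measured cell-free by ADP-Glo. 12-point concentration curves; EC50 fitted by interpolation to an ATP:ADP standard curve.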

Series [2] is described as follows: Pharmacokinetics (oral bioavailability) in C57BL/6 mice. Particulars: mouse, in vivo; for bioavailability: IV 1 mg/kg, PO 30 mg/kg; for Vd: following IV administration, 1 mg/kg, read-out: volume of distribution. The procedure:
Selected compounds were tested for pharmacokinetics in C57BL/6 mice. Compounds 1, 4, 31, 32, 40, 55, 57 and 60 were dosed IV at 1 mg/kg as a formulation of 0.2 mg/mL in 5% DMSO+30% PEG400+65% water and were dosed PO at 30 mg/kg as a formulation of 3 mg/mL in 0.25% MC+5% Tween 80+0.02% SDS. Compound 2 was dosed IV at 1 mg/kg as a formulation of 0.2 mg/mL in 5% ethanol +95% saline and was dosed PO at 30 mg/kg as a formulation of 3 mg/mL in 0.25% MC+5% Tween 80+0.02% SDS.

Series [3] relates to Acute Dextran Sulfate Sodium (DSS) Colitis Model. In words: Intestinal barrier function in mouse acute DSS colitis model (FITC-dextran). Type of series: in vivo, C57B1/6 mice. Particulars: 30 mg/kg QD oral; 3% DSS 7 days; serum FITC-dextran. As for the experimental part: Compounds were formulated in vehicle (0.25% methyl cellulose, 5% Tween 80, 0.02% sodium dodecyl sulfate (SDS) in Hanks' Buffered Salt Solution with Ca^2+ and Mg^2+). Vehicle or compound was administered once daily by oral gavage to C57B1/6 mice. After 3 days of pre-dosing, dextran sulfate sodium (DSS) was simultaneously administered at 3% in drinking water, and appropriate water-only controls were included.
After 7 days of DSS administration, animals treated were switched back to their regular water source and administered a single oral bolus dose of FITC-dextran (FD) four hours prior to necropsy. The animals were sacrificed by cardiac puncture and serum was collected. The concentration of […] present in serum was determined by measuring fluorescence intensity on a standard plate reader, and fitting values back to a standard curve.

The nature of series [4]: in vitro. Particulars: human; for Papp A→B at 2 h, 2 μM / Papp B→A at 2 h, 2 μM: Caco-2, pH 7.4. As for the experimental part: (§1) Caco-2 cells purchased from ATCC were seeded onto […] (PET) in 96-well BD Insert plates at 1×10^5 cells/cm^2, and refreshed medium every 4-5 days until to the 21st to 28th day for confluent cell monolayer formation. The transport buffer in the study was HBSS with 10 mM HEPES at pH 7.40±0.05. Test compounds were tested at 2 μM bi-directionally in duplicate. Digoxin was tested at 10 μM bi-directionally in duplicate, while nadolol and metoprolol were tested at 2 μM in A to B direction in duplicate. Final DMSO concentration was adjusted to less than 1%.
(§2) The plate was incubated for 2 hours in CO2 incubator at 37±1° C., with 5% CO2 at saturated humidity without shaking. All samples were mixed with acetonitrile containing internal standard and were centrifuged at 4000 rpm for 10 min. Subsequently, 100 μL supernatant solution was diluted with 100 μL distilled water for LC/MS/MS analysis. Concentrations of test and control compounds in starting solution, donor solution, and receiver solution were quantified by LC/MS/MS, using peak area ratio of analyte/internal standard.

Series [5] relates to Caco-2 cells. Kind of series: in vitro. The following applies: Caco-2. As for the experimental part: as §1, §2
Series [6] concerns Chemotherapy-induced Intestinal Injury Model. In words: Diarrhea in mouse chemotherapy-induced (5FU) intestinal injury model. The class given is in vivo, BALB/c mice. The following applies: 5FU 400 mg/kg IP; for Diarrhea Score Day 5 / Diarrhea Score Day 6: score 0-3. As for the experimental part: Compounds were formulated in vehicle (0.25% methyl cellulose, 5% Tween 80, 0.02% sodium dodecyl sulfate (SDS) in Hanks' Buffered Salt Solution with Ca' and Mg'). On day 1, either saline or a 400 mg/kg dose of 5-fluorouracil (5FU) in saline was administered by intraperitoneal injection to BALB/c mice. Starting on day 2, vehicle or compound was administered twice a day by oral gavage. From days 5 to 6 post-5FU, the animals were scored for diarrhea severity once a day. The diarrhea was scored 0-3 as follows: 0—normal consistency (black and solid), 1—soft (black and a bit lighter/yellow), 2—loosely shaped stool (yellowish and somewhat watery), 3—extreme diarrhea (very watery).

Series [7] deals with blood glucose levels. In words: Intraperitoneal (IP) glucose tolerance test in mice. The class given is in vivo. The following applies: for % Change in Average Total AUC (0-90 min) vs. Vehicle: blood glucose, glucose 2 g/kg IP. An excerpt:
Systemic AMPK target engagement in vivo can be assessed by measuring the glucose levels in blood following administration of compounds, whereby AMPK activation in skeletal muscle leads in a decrease in overall blood glucose levels.
Compounds were formulated in vehicle (0.25% methyl cellulose, 5% Tween 80, 0.02% sodium dodecyl sulfate (SDS) in Hanks' Buffered Salt Solution with Ca^2+ and Mg^2). Immediately prior to compound dosing, the tip of the tail was removed with scissors and a drop of blood was collected onto a glucometer strip (Bayer Contour Next) for a −1 hour blood glucose measure. The mice were then immediately administered vehicle or compound at 10 mL/kg PO. Approximately one hour later, mice were tail bled for a 0 min blood glucose reading, and then immediately after were administered D(+) glucose (2 g/kg, made up in saline) at 5 mL/kg IP. Tail bleeds were then performed on all mice at 20 min, 40 min, 60 min, and 90 min post D(+) glucose administration for blood glucose measures. Area under the curves (AUCs) for blood glucose measures were then calculated for each treatment from 0-90 mins.

The mark [8] stands for this setting: Caco-2, pH 7.4, Mean Recovery A to B.
Where [9] appears, read: Caco-2, pH 7.4, Mean Recovery B to A.

Sequence of Recombinant AMPK α1/β1/γ1 complex (Q13131 whole entry): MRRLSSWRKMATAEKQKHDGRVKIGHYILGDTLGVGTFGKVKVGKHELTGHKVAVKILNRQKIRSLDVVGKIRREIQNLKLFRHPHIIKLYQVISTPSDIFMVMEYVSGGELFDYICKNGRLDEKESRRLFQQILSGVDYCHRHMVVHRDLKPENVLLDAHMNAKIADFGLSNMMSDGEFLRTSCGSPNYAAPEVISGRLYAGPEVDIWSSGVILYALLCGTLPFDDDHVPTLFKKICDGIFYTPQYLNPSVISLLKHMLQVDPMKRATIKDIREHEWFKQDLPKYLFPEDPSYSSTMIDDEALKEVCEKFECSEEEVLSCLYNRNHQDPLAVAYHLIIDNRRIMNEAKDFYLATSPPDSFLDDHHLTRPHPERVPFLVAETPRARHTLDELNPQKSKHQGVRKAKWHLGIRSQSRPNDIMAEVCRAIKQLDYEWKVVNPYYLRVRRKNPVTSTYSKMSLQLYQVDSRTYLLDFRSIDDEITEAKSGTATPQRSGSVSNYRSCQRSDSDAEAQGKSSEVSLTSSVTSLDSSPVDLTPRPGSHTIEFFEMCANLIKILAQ
Sequence of Recombinant AMPK α1/β1/γ1 complex (Q9Y478 whole entry): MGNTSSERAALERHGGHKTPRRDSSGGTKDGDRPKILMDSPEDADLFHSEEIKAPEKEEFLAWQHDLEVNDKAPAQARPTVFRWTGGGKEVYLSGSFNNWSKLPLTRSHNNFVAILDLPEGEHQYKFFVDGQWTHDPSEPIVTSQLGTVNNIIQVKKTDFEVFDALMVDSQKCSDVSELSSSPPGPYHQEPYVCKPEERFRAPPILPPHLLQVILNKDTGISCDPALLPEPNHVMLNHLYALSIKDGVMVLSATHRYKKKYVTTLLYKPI
Sequence of Recombinant AMPK α1/β1/γ1 complex (P54619 whole entry partner): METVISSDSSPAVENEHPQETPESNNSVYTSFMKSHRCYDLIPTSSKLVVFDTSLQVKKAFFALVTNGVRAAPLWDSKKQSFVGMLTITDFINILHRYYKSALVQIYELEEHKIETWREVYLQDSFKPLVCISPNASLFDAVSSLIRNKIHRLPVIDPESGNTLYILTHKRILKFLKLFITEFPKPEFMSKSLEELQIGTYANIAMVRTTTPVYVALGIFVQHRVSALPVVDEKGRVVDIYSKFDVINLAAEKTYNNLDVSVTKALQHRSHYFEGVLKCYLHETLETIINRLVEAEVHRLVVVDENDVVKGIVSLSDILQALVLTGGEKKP

Usually EC50 stands for the concentration at which the effect is half-maximal. For orientation: half-life means how long it takes for the measured level to halve. Broadly, the bioavailability is dose-corrected exposure relative to a reference, in per cent. Read a high bioavailability as good availability. The Papp A→B is the apparent permeability from the apical to the basolateral side of a cell layer. The term Papp B→A denotes how fast a substance crosses the layer from the basolateral side. On to `O=C(NCCOCCO)c1ccc(-c2ccc(-c3cc4nc(O[C@@H]5CO[C@H]6[C@@H]5OC[C@H]6O)[nH]c4cc3Cl)cc2)cc1` [Compound 31, 4′-(6-chloro-2-(((3R,3aR,6R,6aR)-6-hydroxyhexahydrofuro[3,2-b]furan-3-yl)oxy)-1H-benzo[d]imidazol-5-yl)-N-(2-(2-hydroxyethoxy)ethyl)-[1,1′-biphenyl]-4-carboxamide], for which the EC50 in series [1] worked out at 0.85 nM. Moreover, in series [2], the half-life was 1.7 h, the bioavailability was less than 10% and the Vd was less than 5 L/kg. Besides, in series [3], the “Change in Fluorescence Intensity vs. Vehicle” value is reported as −41%. Also, in series [4], the Papp A→B at 2 h, 2 μM worked out at 0.115 ×10⁻⁶ cm/s and the basolateral-to-apical permeability (Papp B→A) at 2 h, 2 μM was 31.7 ×10⁻⁶ cm/s. The recovery at 2 h, 2 μM in series [4] (setting [8]) was determined as 83.2%. In addition, the recovery at 2 h, 2 μM in series [4] (setting [9]) came out at 97.8%. For the same compound, the “permeability (in words)” value in series [5] is “low permeability”. In series [6] (30 mpk BID oral), the “Diarrhea Score Day 5, % Change vs. Vehicle” value is listed as −67%; the “Diarrhea Score Day 6, % Change vs. Vehicle” value is reported as −61%; the “Diarrhea Score Day 5” value worked out at 0.43; the “Diarrhea Score Day 6” value amounted to 0.63.
One may read the efflux ratio as a quotient of directional permeabilities that is used to spot active efflux. Take `OC[C@@H](O)[C@@H](O)[C@H](O)[C@@H](O)CNCc1ccc(-c2ccc(-c3nc4nc(O[C@@H]5CO[C@H]6[C@@H]5OC[C@H]6O)[nH]c4cc3Cl)cc2)cc1` [Compound 4, (2R,3R,4R,5S)-6-(((4′-(6-chloro-2-(((3R,3aR,6R,6aR)-6-hydroxyhexahydrofuro[3,2-b]furan-3-yl)oxy)-1H-imidazo[4,5-b]pyridin-5-yl)-[1,1′-biphenyl]-4-yl)methyl)amino)hexane-1,2,3,4,5-pentaol]: in series [1], the EC50 turned out to be 0.1 nM. For the same compound, in series [2], the half-life was 1.4 h, the bioavailability is less than 1% and the Vd is less than 1 L/kg. In series [7] (30 mpk PO), the “% Change in Average Total AUC (0-90 min) vs. Vehicle” value is given as −0.9%. For the same compound, the “change in blood glucose AUC vs. vehicle / systemic AMPK activation (in words)” value in series [7] (30 mpk for all compounds, up to 100 mpk for Compound 4) is “do not lead to activation of AMPK in skeletal muscle”. Moreover, in series [7] (100 mpk PO), the “% Change in Average Total AUC (0-90 min) vs. Vehicle” value is on record as “+2.3%”. For the same compound, the “Change in Fluorescence Intensity vs. Vehicle” value in series [3] is −43%. In addition, in series [4], the Papp A→B at 2 h, 2 μM was less than 0.48 ×10⁻⁶ cm/s and the Papp B→A at 2 h, 2 μM stood at 0.71 ×10⁻⁶ cm/s. In addition, the efflux ratio at 2 h, 2 μM in series [4] (Caco-2, pH 7.4, Efflux Ratio) was greater than 1.48. In series [4] (setting [8]), this compound returned a recovery at 2 h, 2 μM of less than 99.6%. In addition, the recovery at 2 h, 2 μM in series [4] (setting [9]) was 102%. Besides, in series [5], the “permeability (in words)” value is given as “low permeability”. Further, in series [6] (3 mpk BID oral), the “Diarrhea Score Day 5, % Change vs. Vehicle” value is −16%; the “Diarrhea Score Day 6, % Change vs. Vehicle” value is recorded as −44%; the “Diarrhea Score Day 5” value came to 0.75; the “Diarrhea Score Day 6” value was 1.00. In addition, in series [6] (10 mpk BID oral), the “Diarrhea Score Day 5, % Change vs. Vehicle” value is reported as −72%; the “Diarrhea Score Day 6, % Change vs. Vehicle” value was −79%; the “Diarrhea Score Day 5” value is given as 0.25; the “Diarrhea Score Day 6” value stood at 0.38.
